Measurements from patent US20020086814A1 (priority 2000, published 2002).

Experiments:
Vero cells [1] = format: cell-based
Vero cells [2] = format: cell-based; remark: listed apart in the source

chlorin e6 [free Ce6]
LD50 of photodynamic cell killing, expressed in molar concentration of Ce6 (Vero cells [1]): 1.2 nmol/mL | Cell-associated Ce6-specific fluorescence (Vero cells [2]): no detectable Ce6-specific fluorescence
